According to patent US20210032257A1, “(E)-1-(4-(DIMETHYLAMINO)BUT-2-ENOYL)PYRROLIDIN-3-YL 4-((3-ISOPROPYL-5-METHYLPYRAZOLO[1,5-A]PYRIMIDIN-7-YL)AMINO)PIPERIDINE-1-CARBOXYLATE FOR INHIBITING CDK7” (Eli Lilly and Company, priority 2017, published 2021):
pIC50: −log10 of the molar value.

What was measured:
CDK4/CycD1 = biological target: T1, CDK4/CycD1 (Homo sapiens, UniProt P11802); experiment: ProQinase WT Profiler radiometric protein kinase assay; format: biochemical; settings: non standard IC50 from 4 concentrations, kinase 3.3 nM, ATP 3 μM
T1 construct: purchased ProQinase
T1 sequence (P11802 whole entry): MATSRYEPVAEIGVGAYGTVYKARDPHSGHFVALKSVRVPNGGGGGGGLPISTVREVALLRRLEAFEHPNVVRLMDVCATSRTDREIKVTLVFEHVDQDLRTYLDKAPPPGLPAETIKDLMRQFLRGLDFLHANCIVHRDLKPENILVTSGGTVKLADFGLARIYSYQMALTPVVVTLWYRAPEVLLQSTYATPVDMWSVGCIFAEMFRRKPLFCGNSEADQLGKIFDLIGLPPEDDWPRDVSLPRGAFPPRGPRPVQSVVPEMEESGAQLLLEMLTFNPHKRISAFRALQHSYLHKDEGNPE
T1 sequence (P24385 whole entry partner): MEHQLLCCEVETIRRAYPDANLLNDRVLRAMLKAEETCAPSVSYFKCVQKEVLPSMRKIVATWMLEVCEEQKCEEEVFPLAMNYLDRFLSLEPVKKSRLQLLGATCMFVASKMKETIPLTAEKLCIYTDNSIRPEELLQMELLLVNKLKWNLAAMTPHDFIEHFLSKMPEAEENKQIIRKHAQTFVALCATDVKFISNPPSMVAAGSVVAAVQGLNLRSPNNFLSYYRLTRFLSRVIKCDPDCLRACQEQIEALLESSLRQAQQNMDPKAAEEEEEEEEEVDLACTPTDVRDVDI
Procedure: Kinase inhibition profile of compound is determined by measuring residual activity values at four concentrations in singlicate in 320 wild-type protein kinase assays. The compounds are tested at 20 μM, 2 μM, 0.2 μM and 0.02 μM in singlicate. The final DMSO concentration in all reaction cocktails (including high and low controls) is 1%.
A radiometric protein kinase assay (33PANQINASE® Activity Assay, ProQinase) is used for measuring the kinase activity of the 320 protein kinases. All kinase assays are performed in 96-well FLASHPLATES™ in a 50 μL reaction volume. The reaction cocktail is pipetted in 4 steps in the following order:
All PKC assays (except the PKC-mu and the PKC-nu assay) additionally contain 1 mM CaCl2). 4 mM EDTA, 5 μg/mL Phosphatidylserine and 1 μg/mL 1,2-Dioleyl-glycerol. The CAMK1D, CAMK2A, CAMK2B, CAMK2D, CAMK2G, CAMK4, CAMKK1, CAMKK2, DAPK2, EEF2K, MYLK, MYLK2 and MYLK3 assays additionally contain 1 μg/mL Calmodulin and 0.5 mM CaCl2). The PRKG1 and PRKG2 assays additionally contain 1 μM cGMP. The DNA-PK assay additionally contained 2.5 μg/mL DNA.
The protein kinase reaction cocktails are incubated at 30° C. for 60 minutes. The reaction is stopped with 50 μL of 2% (v/v) H3PO4, plates are aspirated and washed two times with 200 μL 0.9% (w/v) NaCl. […] All protein kinase assays are performed with a BeckmanCoulter BIOMEK® 2000/SL robotic system. All protein kinases provided by ProQinase are expressed in Sf9 insect cells or in E. coli as recombinant GST-fusion proteins or His-tagged proteins, either as full-length or enzymatically active fragments. All kinases are produced from human cDNAs and purified by either GSH-affinity chromatography or immobilized metal. Affinity tags are removed from a number of kinases during purification. The purity of the protein kinases is examined by SDS-PAGE/Coomassie staining, the identity is checked by mass spectroscopy. Kinases from external vendors (CAR=Carna Biosciences Inc.; INV=Life Technologies (Invitrogen Corporation™); MIL=Merck-Millipore (Millipore Corporation™), see Table 1) are expressed, purified and quality-controlled by virtue of the vendors readings.
For each kinase, the median value of the cpm of three wells is defined as “low control” (n=3). This value reflects unspecific binding of radioactivity to the plate in the absence of a protein kinase but in the presence of the substrate. […] The difference between high and low control of each enzyme is taken as 100% activity. As part of the data evaluation, the low control of each kinase is subtracted from the high control value as well as from their corresponding “compound values”. The residual activity (in %) for each compound well is calculated by using the following formula: Res. Activity (%)=100×[(signal of compound−low control)/(high control−low control)]. Non Standard IC50s are calculated using a customized excel spreadsheet in conjunction with XLFit Add-in. Due to the low number of data points, (4) XL-Fit calculates a non standard IC50 using a four parametric equation where three parameters are locked to fixed values.
A: Minimum value of activity, Also known as Bottom. Fixed to 0 B: Maximum value of activity, Also known as Top. Fixed to 100 C: Inflexion point of the curve D: Hill Slope. Fixed to 1 Y: The dependent variable (i.e. what you measure as the signal) X: The independent variable (i.e. what you control, such as, dose, concentration, etc.)
The way to calculate the Non Standard IC50 is to assign random values to C parameter and repeat it iteratively. The algorithm then measures the differences in the sum of the residuals squared and will look for successive consecutive iterations where the change in the residuals is converging.

[1] = test system: phospho-carboxyl terminal domain (Ser5) in HCT116 cells; experiment: p-CTD (S5) cell based Acumen assay; settings: Homo sapiens, HCT-116, 4 hours, read-out: Relative IC50 for pCTD Ser5
Procedure: HCT116 cells (ATCC CCL-247) are cultured in McCoy's 5A Medium Modified media supplemented with 10% FBS, 1% NaPyr and 1% Pen/Strep and plated (prior to becoming 70% confluent) in 96-well flat-bottom plates at a density of 5,000 cells per well in 100 μL volume. The cells are incubated overnight in a cell culture incubator (5% CO2, 95% Relative Humidity (RH) and 37° C.) and allowed to attach to the plate. The following morning, the cells are dosed with compounds. Compound inhibitors are solubilized at 60 μM in culture medium containing 0.6% DMSO. Subsequently compound serial dilutions (1:3) are prepared over a 60 μM to 0.003 μM range. […]
The following day cells are washed three times with PBS (100 μL/well) and incubated with 50 μL/well of secondary antibody (1:2000 dilution, Goat anti-rabbit IgM ALEXA FLUOR™ 488) in PBS for 1 hour at room temperature. […] Plates are analyzed on Acumen on FL2 (mean intensity), and FL3 (total intensity). Fluorescence plates are scanned with ACUMEN EXPLORER™ [Laser-scanning fluorescence microplate cytometer manufactured by TTP LABTECH LTD] to measure anti-phospho-carboxyl terminal domain at Serine 5 (pCTD). […] The IC50 is determined by curve fitting to a four parameter logistic for each output using GENE DATA™.

For `Cc1cc(NC2CCN(C(=O)O[C@H]3CCN(C(=O)/C=C/CN(C)C)C3)CC2)n2ncc(C(C)C)c2n1` [Example 1, [(3S)-1-[(E)-4-(dimethylamino)but-2-enoyl]pyrrolidin-3-yl] 4-[(3-isopropyl-5-methyl-pyrazolo[1,5-a]pyrimidin-7-yl)amino]piperidine-1-carboxylate], the pIC50 (CDK4/CycD1) was 5.55 and the pIC50 [1] was 6.85.
